# Experimental data: paper PMC8776995 (Frontiers in Chemistry, 2022)
# “And” between values parts separate entries of the source, which are not always exact repeats. Equal entries are not always repeated.
# Assays:
# [1] = system: H460 cells; test: CCK-8 antiproliferation assay, H460; conditions: for Inhibitory efficacy: H460 cells
# [2] = system: H1975 cells; test: CCK-8 antiproliferation assay, H1975; conditions: for Inhibitory efficacy: H1975 cells
# [3] = system: PC-9 cells; test: CCK-8 antiproliferation assay, PC-9; conditions: for Inhibitory efficacy: single repeats (Repeat 1-3), given as fraction
# [4] = system: A549 cells; test: CCK-8 antiproliferation assay, A549; conditions: for Inhibitory efficacy: A549 cells
# Method: The compounds were dissolved in DMSO to make a 20 μM stock solution and diluted to the concentration of working solutions with complete growth medium before administration.
# Cells were seeded in 96-well plates: 3,000–5,000 cells/well in 100 ul. One day after seeding, the test compounds at concentration between 1.0 and 16.0 μ M or 0.1% DMSO (as control) were added to cells in triplicate. 48 h later, CCK-8 was added and incubated the plate for 1–4 h in the incubator. The absorbance at 450 nm were measured using a microplate reader (Bio-Tek).
# [5] = target: wild-type EGFR (Homo sapiens, UniProt P00533); test: EGFR kinase assay (ELISA); conditions: for A450: raw ELISA absorbance
# Sequence of wild-type EGFR (P00533 25-1210): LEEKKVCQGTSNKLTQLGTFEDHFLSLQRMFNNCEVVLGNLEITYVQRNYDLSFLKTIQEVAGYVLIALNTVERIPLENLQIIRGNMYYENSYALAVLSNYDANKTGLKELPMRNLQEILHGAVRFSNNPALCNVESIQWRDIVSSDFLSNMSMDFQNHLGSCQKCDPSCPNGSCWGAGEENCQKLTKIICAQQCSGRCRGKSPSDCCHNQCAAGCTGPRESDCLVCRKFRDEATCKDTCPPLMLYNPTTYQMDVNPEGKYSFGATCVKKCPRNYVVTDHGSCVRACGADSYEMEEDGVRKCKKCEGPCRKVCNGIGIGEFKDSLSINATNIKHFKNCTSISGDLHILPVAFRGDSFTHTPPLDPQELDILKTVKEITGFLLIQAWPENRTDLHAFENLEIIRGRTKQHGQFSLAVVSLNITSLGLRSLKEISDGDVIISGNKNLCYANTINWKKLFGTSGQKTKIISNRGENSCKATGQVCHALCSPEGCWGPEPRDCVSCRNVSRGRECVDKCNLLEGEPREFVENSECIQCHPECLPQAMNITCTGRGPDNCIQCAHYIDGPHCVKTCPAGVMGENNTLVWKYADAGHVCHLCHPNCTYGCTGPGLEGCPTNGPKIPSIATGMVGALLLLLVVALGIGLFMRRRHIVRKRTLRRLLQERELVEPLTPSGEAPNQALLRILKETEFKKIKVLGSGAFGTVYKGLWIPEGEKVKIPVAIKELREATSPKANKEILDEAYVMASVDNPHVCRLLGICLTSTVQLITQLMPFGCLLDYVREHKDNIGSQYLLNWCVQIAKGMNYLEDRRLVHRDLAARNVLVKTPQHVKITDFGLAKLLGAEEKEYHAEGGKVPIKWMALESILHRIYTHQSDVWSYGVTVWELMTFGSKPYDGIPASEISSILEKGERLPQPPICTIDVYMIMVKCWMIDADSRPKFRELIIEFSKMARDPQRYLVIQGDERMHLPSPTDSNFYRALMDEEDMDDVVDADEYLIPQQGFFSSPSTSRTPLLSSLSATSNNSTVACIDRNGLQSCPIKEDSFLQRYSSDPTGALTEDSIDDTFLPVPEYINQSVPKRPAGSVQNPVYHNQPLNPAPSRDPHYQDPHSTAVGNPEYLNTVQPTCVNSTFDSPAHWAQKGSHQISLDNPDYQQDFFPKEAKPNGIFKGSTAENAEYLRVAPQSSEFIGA
# [6] = 4uM, given as fraction, Repeat 1-3
# [7] = 8uM, given as fraction, Repeat 1-3
# [8] = 16uM, given as fraction, Repeat 1-3
# [9] = 1uM, given as fraction, Repeat 1-3
# [10] = 2uM, given as fraction, Repeat 1-3
smiles,measurement,setting,value
"COCCOc1cc2ncnc(Nc3cccc(-c4cn(-c5cccc([N+](=O)[O-])c5)nn4)c3)c2cc1OCCOC [e13, [6,7-Bis-(2-methoxy-ethoxy)-quinazolin-4-yl]-{3-[1-(3-nitro-phenyl)-1H-[1,2,3]triazol-4-yl]-phenyl}-amine]",Inhibitory efficacy,[1]; [6],0.3261 and 0.3299
same,Inhibitory efficacy,[1]; [7],0.4209 and 0.401
same,Inhibitory efficacy,[1]; [8],0.4769 and 0.494
same,IC50,"[1]; Homo sapiens, NCI-H460, 48 h, read-out: IC50 (μM) H460, CCK-8, 48 h, average ± SD of three independent experiments",11.9 ± 3.63 µM
same,inhibition at 4 µM,"[1]; Homo sapiens, NCI-H460, read-out: Inhibitory efficacy, H460 cells, 4uM, given as fraction, Repeat 1-3",42.4%
same,inhibition at 8 µM,"[1]; Homo sapiens, NCI-H460, read-out: Inhibitory efficacy, H460 cells, 8uM, given as fraction, Repeat 1-3",54.8%
same,inhibition at 16 µM,"[1]; Homo sapiens, NCI-H460, read-out: Inhibitory efficacy, H460 cells, 16uM, given as fraction, Repeat 1-3",56.2%
same,Inhibitory efficacy,[2]; [9],0.09975 and 0.197
same,Inhibitory efficacy,[2]; [10],0.1652 and 0.1521
same,Inhibitory efficacy,[2]; [6],0.1521 and 0.1128
same,Inhibitory efficacy,[2]; [7],0.1633 and 0.2344
same,Inhibitory efficacy,[2]; [8],0.1933 and 0.2774
same,IC50,"[2]; Homo sapiens, NCI-H1975, 48 h, read-out: IC50 (μM) H1975, CCK-8, 48 h, average ± SD of three independent experiments",> 100 µM
same,inhibition at 1 µM,"[2]; Homo sapiens, NCI-H1975, read-out: Inhibitory efficacy, H1975 cells, 1uM, given as fraction, Repeat 1-3",14.3%
same,inhibition at 2 µM,"[2]; Homo sapiens, NCI-H1975, read-out: Inhibitory efficacy, H1975 cells, 2uM, given as fraction, Repeat 1-3",25.5%
same,inhibition at 4 µM,"[2]; Homo sapiens, NCI-H1975, read-out: Inhibitory efficacy, H1975 cells, 4uM, given as fraction, Repeat 1-3",15%
same,inhibition at 8 µM,"[2]; Homo sapiens, NCI-H1975, read-out: Inhibitory efficacy, H1975 cells, 8uM, given as fraction, Repeat 1-3",24.2%
same,inhibition at 16 µM,"[2]; Homo sapiens, NCI-H1975, read-out: Inhibitory efficacy, H1975 cells, 16uM, given as fraction, Repeat 1-3",21%
same,IC50,"[3]; Homo sapiens, PC-9, 48 h, read-out: IC50 (μM) PC-9",22.6 ± 1.16 µM
same,inhibition at 8 µM,"[3]; Homo sapiens, PC-9, read-out: Inhibitory efficacy, PC-9, 8uM, single repeats (Repeat 1-3), given as fraction",12.1%
same,inhibition at 16 µM,"[3]; Homo sapiens, PC-9, read-out: Inhibitory efficacy, PC-9, 16uM, single repeats (Repeat 1-3), given as fraction",28.6%
same,Inhibitory efficacy,"[3]; PC-9, 8uM, 8 µM",0.1077 and 0.1459
same,Inhibitory efficacy,"[3]; PC-9, 16uM, 16 µM",0.2884 and 0.3336
same,melting point,,98 to 101 °C
same,Inhibitory efficacy,[4]; [9],0.1588 and 0.1553
same,Inhibitory efficacy,[4]; [10],0.352 and 0.366
same,Inhibitory efficacy,[4]; [6],0.5268 and 0.5198
same,Inhibitory efficacy,[4]; [7],0.5749 and 0.6133
same,Inhibitory efficacy,[4]; [8],0.6238 and 0.6256
same,IC50,"[4]; Homo sapiens, A549, 48 h, read-out: IC50 (μM) A549, CCK-8, 48 h, average ± SD of three independent experiments",5.95 ± 1.47 µM
same,inhibition at 1 µM,"[4]; Homo sapiens, A549, read-out: Inhibitory efficacy, A549 cells, 1uM, given as fraction, Repeat 1-3",8.71%
same,inhibition at 2 µM,"[4]; Homo sapiens, A549, read-out: Inhibitory efficacy, A549 cells, 2uM, given as fraction, Repeat 1-3",36.9%
same,inhibition at 4 µM,"[4]; Homo sapiens, A549, read-out: Inhibitory efficacy, A549 cells, 4uM, given as fraction, Repeat 1-3",44.6%
same,inhibition at 8 µM,"[4]; Homo sapiens, A549, read-out: Inhibitory efficacy, A549 cells, 8uM, given as fraction, Repeat 1-3",51.1%
same,inhibition at 16 µM,"[4]; Homo sapiens, A549, read-out: Inhibitory efficacy, A549 cells, 16uM, given as fraction, Repeat 1-3",56.8%
same,IC50,"[5]; IC50 (μM) EGFR, ELISA, 3 μmol/L ATP",4.74 µM
same,inhibition at 100 fM,"[5]; concentration 0.0001 nM (reference for normalisation), one value per replicate column",0%
same,Inhibition,"[5]; concentration 0.03 nM, one value per replicate column, 3e-05 µM",3.252
same,Inhibition,"[5]; concentration 0.3 nM, one value per replicate column, 0.0003 µM",1.084 and 9.485
same,Inhibition,"[5]; concentration 3 nM, one value per replicate column, 0.003 µM",4.065 and 14.0921
same,Inhibition,"[5]; concentration 30 nM, one value per replicate column, 0.03 µM",5.691 and 21.1382
same,Inhibition,"[5]; concentration 300 nM, one value per replicate column, 0.3 µM",10.0271 and 28.9973
same,inhibition at 3 µM,"[5]; concentration 3000 nM, one value per replicate column",30.9%
same,Inhibition,"[5]; concentration 3000 nM, one value per replicate column, 3 µM",29.5393
same,A450,[5]; concentration 0.0001 nM,0.702 and 0.668
same,A450,[5]; concentration 0.03 nM,0.702 and 0.656
same,A450,[5]; concentration 0.3 nM,0.698 and 0.633
same,A450,[5]; concentration 3 nM,0.687 and 0.616
same,A450,[5]; concentration 30 nM,0.681 and 0.59
same,A450,[5]; concentration 300 nM,0.665 and 0.561
same,A450,[5]; concentration 3000 nM,0.588 and 0.559
same,A450,[5]; concentration 30000 nM,0.333 and 0.299
